PMC6556873, “Rapid Covalent-Probe Discovery by Electrophile-Fragment Screening” (Journal of the American Chemical Society, 2019)
Like-named read-outs stand apart in the source and are kept apart here.

Assays:
PCAF = biological target: T1, PCAF (Homo sapiens, UniProt Q92831); design: Intact protein LC/MS covalent labelling, fragments in pools of five, 200 uM each, 4 °C; conditions: 24 h, 4 °C, pool of five; 200 µM; covalent
T1 construct: gene KAT2B

NUDT7 = biological target: T2, NUDT7 (Homo sapiens, UniProt P0C024); design: Intact protein LC/MS covalent labelling, fragments in pools of five, 200 uM each, 4 °C; conditions: 24 h, 4 °C, pool of five; 200 µM; covalent
T2 construct: residues 14-235, E. coli, pNIC28-Bsa4, N-terminal His6 tag removed by TEV, construct 26672 Da
T2 sequence (P0C024 14-235): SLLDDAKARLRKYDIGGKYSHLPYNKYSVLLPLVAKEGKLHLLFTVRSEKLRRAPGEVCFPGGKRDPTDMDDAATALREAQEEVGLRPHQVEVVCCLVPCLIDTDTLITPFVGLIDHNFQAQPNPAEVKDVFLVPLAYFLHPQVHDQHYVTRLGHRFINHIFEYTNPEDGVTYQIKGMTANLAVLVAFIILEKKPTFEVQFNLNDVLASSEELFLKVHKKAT

BSA = biological target: T3, BSA (Bos taurus, UniProt P02769); design: Intact protein LC/MS covalent labelling, fragments in pools of five, 200 uM each, 4 °C; conditions: 24 h, 4 °C, pool of five; 200 µM; covalent
T3 construct: gene ALB
T3 sequence (P02769 whole entry, the tested form may be a part): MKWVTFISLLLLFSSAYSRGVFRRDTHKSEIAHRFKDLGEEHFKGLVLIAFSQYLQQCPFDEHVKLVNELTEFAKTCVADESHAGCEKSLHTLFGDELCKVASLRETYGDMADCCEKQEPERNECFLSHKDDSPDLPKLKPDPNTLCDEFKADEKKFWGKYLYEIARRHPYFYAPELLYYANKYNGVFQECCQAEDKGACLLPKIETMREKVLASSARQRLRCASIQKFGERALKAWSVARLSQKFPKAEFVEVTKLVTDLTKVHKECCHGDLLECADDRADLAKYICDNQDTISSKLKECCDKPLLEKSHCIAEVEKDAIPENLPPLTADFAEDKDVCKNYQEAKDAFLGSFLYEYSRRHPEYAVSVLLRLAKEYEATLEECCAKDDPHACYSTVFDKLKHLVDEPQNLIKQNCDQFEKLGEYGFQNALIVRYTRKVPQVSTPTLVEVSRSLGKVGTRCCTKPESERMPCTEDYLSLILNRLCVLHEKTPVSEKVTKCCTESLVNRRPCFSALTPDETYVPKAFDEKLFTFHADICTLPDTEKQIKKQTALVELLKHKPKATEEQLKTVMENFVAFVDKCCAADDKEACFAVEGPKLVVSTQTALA

OTUB2 (OTUB2A) = biological target: T4, OTUB2 (OTUB2A) (Homo sapiens, UniProt Q96DC9); design: Intact protein LC/MS covalent labelling, fragments in pools of five, 200 uM each, 4 °C; conditions: 24 h, 4 °C, pool of five; 200 µM; covalent
T4 construct: full length residues 1-234, E. coli BL21(DE3)-R3, His tag removed by TEV, construct 27312 Da
T4 sequence (Q96DC9 1-234): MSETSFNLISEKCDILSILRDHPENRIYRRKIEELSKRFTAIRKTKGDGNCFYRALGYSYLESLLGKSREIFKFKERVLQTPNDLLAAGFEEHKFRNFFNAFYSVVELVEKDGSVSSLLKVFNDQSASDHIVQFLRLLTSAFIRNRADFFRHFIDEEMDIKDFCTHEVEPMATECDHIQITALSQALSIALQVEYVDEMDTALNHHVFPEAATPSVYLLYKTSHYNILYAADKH

in vitro [1] = test: in vitro; design: species or system HB2, CCD841; conditions: human, hek293 cells
in vitro [2] = test: in vitro; design: species or system HB2, HEK293; conditions: human, ccd841 cells
in vitro [3] = test: in vitro; design: species or system CCD841, HEK293; conditions: human, hb2 cells, read-out: HB-2 Cells Viability (%)

T1 sequence (Q92831 whole entry, the tested form may be a part): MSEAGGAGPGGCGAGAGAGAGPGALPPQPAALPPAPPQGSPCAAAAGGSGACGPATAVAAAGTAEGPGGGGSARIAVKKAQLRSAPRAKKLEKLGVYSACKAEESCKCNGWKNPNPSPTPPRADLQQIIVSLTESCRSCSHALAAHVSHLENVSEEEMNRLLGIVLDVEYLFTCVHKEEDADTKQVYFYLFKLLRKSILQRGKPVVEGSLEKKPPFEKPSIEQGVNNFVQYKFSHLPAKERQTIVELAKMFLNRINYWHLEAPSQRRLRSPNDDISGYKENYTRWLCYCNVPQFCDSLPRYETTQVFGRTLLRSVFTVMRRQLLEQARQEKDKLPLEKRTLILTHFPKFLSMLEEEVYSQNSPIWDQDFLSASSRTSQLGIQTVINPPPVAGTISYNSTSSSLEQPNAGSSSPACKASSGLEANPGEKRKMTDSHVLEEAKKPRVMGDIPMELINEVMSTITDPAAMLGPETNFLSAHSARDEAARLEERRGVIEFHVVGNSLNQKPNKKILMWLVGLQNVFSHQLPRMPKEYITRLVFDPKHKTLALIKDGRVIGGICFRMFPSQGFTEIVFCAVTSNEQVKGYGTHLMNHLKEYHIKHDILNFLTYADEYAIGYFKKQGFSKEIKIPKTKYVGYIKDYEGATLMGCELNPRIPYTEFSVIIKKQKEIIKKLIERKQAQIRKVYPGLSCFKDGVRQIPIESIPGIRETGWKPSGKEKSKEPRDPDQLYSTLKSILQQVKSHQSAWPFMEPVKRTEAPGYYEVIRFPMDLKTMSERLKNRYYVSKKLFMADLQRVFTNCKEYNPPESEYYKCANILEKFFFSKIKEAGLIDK

| PCAF (PCAF) | NUDT7 (NUDT7) | BSA (BSA) | OTUB2 (OTUB2 (OTUB2A)) | SMILES | viability at 48 h, 10 µM (in vitro [1]) [%] | viability at 48 h, 10 µM (in vitro [2]) [%] | viability at 48 h, 10 µM (in vitro [3]) [%] |
| --- | --- | --- | --- | --- | --- | --- | --- |
| 0 | 0 | 0 | 0 | C=CC(=O)N1CCC(c2nc(C(F)(F)F)cs2)CC1 [PCM-0102525] | 96.6 | 128 | 95.8 |
| 0 | 0 | 0 | 0 | C=CC(=O)NC(C#N)C(C)C (stereo not drawn) [PCM-0102529] | 89.7 | 98.9 | 102 |
| 0 | 0 | 0 | 0 | C=CC(=O)Nc1cc(N)ccc1F [PCM-0102533] | 75.6 | 113 | 108 |
| 0 | 0.06 | 0.2 | 0 | CC(=O)N1CCN(C(=O)CCl)CC1 [PCM-0102535] | 37.6 | 82.8 | 85.7 |
| 0 | 0 | 0 | 0.14 | CC(C)(C)c1cc(NC(=O)CCl)n(-c2ccccc2)n1 [PCM-0102536] | 10.6 | 65.2 | 33.5 |
| 0 | 0.12 | 0 | 0 | C=CC(=O)Nc1ccc(Cl)cc1 [PCM-0102537] | 81.5 | 89.3 | 95.5 |
| 0 | 0.33 | 0 | 0.16 | Cc1ccc(N(C(=O)CCl)C2C=CS(=O)(=O)C2)cc1 (stereo not drawn) [PCM-0102539] | 4.7 | 31.5 | 23.3 |
| 0 | 0 | 0 | 0 | CC(C)(C)NC(=O)NC(=O)CCl [PCM-0102540] | 113 | 140 | 111 |
| 0 | 0.14 | 0 | 0 | COC(=O)c1c(NC(=O)CCl)sc2c1CCC2 [PCM-0102542] | 18.6 | 70.6 | 18.1 |
| 0 | 0 | 0 | 0 | C=CC(=O)Nc1cc(-c2ccnn2C)ccc1C [PCM-0102543] | 93.5 | 134 | 103 |
| 0 | 0 | 0 | 0.31 | O=C(CCl)Nc1cc([N+](=O)[O-])ccc1F [PCM-0102544] | 1.8 | 2.5 | 1.6 |
| 0 | 0.18 | 0 | 0.32 | CC1(C)C(=O)Nc2ccccc2N1C(=O)CCl [PCM-0102546] | 57.2 | 78.5 | 48 |
| 0 | 0 | 0 | 0.09 | N#CSc1ccc(NC(=O)CCl)c(F)c1 [PCM-0102548] | 55.2 | 26.5 | 19.2 |
| 0 | 0 | 0 | 0 | C=CC(=O)N1CCCc2ccccc21 [PCM-0102549] | 111 | 109 | 111 |
| 0 | 0.11 | 0 | 0 | O=C(CCl)N=c1sccn1Cc1ccccc1Cl [PCM-0102550] | 6 | 3.8 | 27.2 |
| 0 | 0 | 0 | 0 | C=CC(=O)Nc1ccc(N2CCOCC2)cc1 [PCM-0102551] | 82.5 | 113 | 99.9 |
| 0 | 0.19 | 0 | 0 | Cc1ccc(CN(C)C(=O)CCl)c(C)c1 [PCM-0102552] | 62.6 | 69.9 | 54.5 |

| PCAF (PCAF) | NUDT7 (NUDT7) | BSA (BSA) | OTUB2 (OTUB2 (OTUB2A)) | SMILES | viability at 48 h, 10 µM (in vitro [1]) [%] | viability at 48 h, 10 µM (in vitro [2]) [%] | viability at 48 h, 10 µM (in vitro [3]) [%] |
| --- | --- | --- | --- | --- | --- | --- | --- |
| 0 | 0 | 0 | 0 | CC(C)(O)CNC(=O)CCl [PCM-0102554] | 93.2 | 99.5 | 103 |
| 0 | 0 | 0 | 0 | C=CC(=O)N1CCC(n2cccn2)CC1 [PCM-0102555] | 109 | 104 | 102 |
| 0 | 0.39 | 0 | 0 | CC(c1ccc(Cl)cc1)N(C)C(=O)CCl (stereo not drawn) [PCM-0102556] | 3.1 | 11.5 | 4.9 |
| 0 | 0 | 0 | 0 | C=CC(=O)NCc1cnn2ccccc12 [PCM-0102561] | 95.2 | 124 | 108 |
| 0 | 0 | 0 | 0 | C=CC(=O)NC1CC(C)(C)OC1(C)C (stereo not drawn) [PCM-0102562] | 94.8 | 114 | 107 |
| 0 | 0 | 0 | 0 | C=CC(=O)NC1CCC2(CC1)OCCO2 [PCM-0102564] | 75.1 | 132 | 109 |
| 0 | 0.18 | 0 | 0 | C=CC(=O)N1CCCN(Cc2cn3cc(Cl)ccc3n2)CC1 [PCM-0102565] | 105 | 104 | 106 |
| 0 | 0 | 0 | 0 | C=CC(=O)NC1CCc2nc(-c3cc(F)ccc3F)cn2C1 (stereo not drawn) [PCM-0102566] | 78 | 106 | 97.4 |
| 0 | 0 | 0 | 0 | C=CC(=O)NC1CCC(N2CCCS2(=O)=O)CC1 (stereo not drawn) [PCM-0102568] | 78 | 93.8 | 107 |
| 0 | 0 | 0 | 0 | CC(NC(=O)CCl)C1CC2CCC1C2 (stereo not drawn) [PCM-0102572] | 80.7 | 91.1 | 92 |
| 0 | 0.09 | 0 | 0.09 | O=C(NC1CCN(C(=O)CCl)CC1)c1ccccc1 [PCM-0102575] | 40.6 | 68.2 | 63.8 |
| 0 | 0 | 0 | 0 | O=C(CCl)Nc1c(Cl)cc(Cl)cc1C(=O)O [PCM-0102576] | 100 | 105 | 100 |
| 0 | 0.34 | 0 | 0.8 | Cc1ccc(NC(=O)CCl)cc1I [PCM-0102577] | 2.4 | 17.9 | 4.6 |
| 0 | 0 | 0 | 0.16 | O=C(CCl)NCc1ccc2c(c1)OCO2 [PCM-0102578] | 85.6 | 99.9 | 97.5 |
| 0 | 0.4 | 0 | 0 | Cc1cccc(N(C(=O)CCl)C2C=CS(=O)(=O)C2)c1 (stereo not drawn) [PCM-0102579] | 6.4 | 16.2 | 29.8 |
| 0 | 0.72 | 0 | 0.1 | N#Cc1c(NC(=O)CCl)sc2c1CCCC2 [PCM-0102580] | 67.4 | 78 | 77.2 |
